The values that follow come from ChEMBL document CHEMBL1133363, “Discovery and evaluation of potent, tyrosine-based alpha4beta1 integrin antagonists” (Bioorg Med Chem Lett, 2000).

Data set [1] concerns the target Integrin alpha-IIb/beta-3 (Homo sapiens, UniProt P05106+P08514). Put plainly: The antagonist activity was evaluated by alphaIlb-beta3 cell assay. It counts as functional.
Data set [2] deals with Intercellular adhesion molecule (ICAM-1), Integrin alpha-L/beta-2 (Homo sapiens, UniProt P05107+P05362+P20701). Description: Inhibition of alphaL-beta2 mediated cell adhesion. It counts as protein-complex assay.
Data set [3] in a line: Half life stability of compound was evaluated in rat plasma. It counts as ADME, organism-based.
Data set [4] has as its target T1, Integrin alpha-4/beta-1 (Homo sapiens, UniProt P05556+P13612). Put plainly: Inhibition of alpha4-beta1 VCAM binding in Jurkat cell adhesion assay. It counts as cell-based.
For the next data set, the target named is Integrin alpha-5/beta-1 (Homo sapiens, UniProt P05556+P08648). Description: Inhibition of alpha5-beta1 integrin mediated cell adhesion. It counts as protein-complex assay.
The target of a further data set is T2, Integrin alpha-4/beta-7 (Homo sapiens, UniProt P13612+P26010).
T2 sequence (P13612 whole entry): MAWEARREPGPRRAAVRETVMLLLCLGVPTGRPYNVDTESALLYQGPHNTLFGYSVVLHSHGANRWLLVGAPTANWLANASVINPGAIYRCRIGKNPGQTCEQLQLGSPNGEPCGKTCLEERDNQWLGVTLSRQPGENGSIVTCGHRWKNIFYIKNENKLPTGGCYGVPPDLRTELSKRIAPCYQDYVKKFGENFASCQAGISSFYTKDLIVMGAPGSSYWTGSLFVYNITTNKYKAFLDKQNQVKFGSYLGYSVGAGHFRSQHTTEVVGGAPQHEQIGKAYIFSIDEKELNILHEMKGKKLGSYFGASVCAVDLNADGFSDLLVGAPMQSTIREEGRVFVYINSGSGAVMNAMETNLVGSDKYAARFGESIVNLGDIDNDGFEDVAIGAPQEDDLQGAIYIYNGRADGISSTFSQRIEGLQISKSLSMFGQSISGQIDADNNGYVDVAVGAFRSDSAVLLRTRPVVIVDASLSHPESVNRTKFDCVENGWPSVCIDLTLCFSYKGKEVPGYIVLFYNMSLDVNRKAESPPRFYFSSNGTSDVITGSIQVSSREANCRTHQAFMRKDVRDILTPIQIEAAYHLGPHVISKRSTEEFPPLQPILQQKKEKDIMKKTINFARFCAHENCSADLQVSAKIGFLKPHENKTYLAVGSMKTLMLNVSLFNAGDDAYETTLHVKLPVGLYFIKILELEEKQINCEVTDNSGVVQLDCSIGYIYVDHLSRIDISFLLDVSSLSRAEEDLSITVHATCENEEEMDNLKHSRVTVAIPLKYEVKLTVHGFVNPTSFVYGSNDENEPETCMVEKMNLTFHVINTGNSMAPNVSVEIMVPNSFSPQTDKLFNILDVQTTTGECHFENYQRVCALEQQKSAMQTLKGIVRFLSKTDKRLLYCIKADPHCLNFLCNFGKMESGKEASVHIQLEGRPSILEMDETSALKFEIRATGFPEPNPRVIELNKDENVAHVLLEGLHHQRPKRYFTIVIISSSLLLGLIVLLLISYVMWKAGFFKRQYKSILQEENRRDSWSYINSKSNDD
T2 sequence (P26010 whole entry): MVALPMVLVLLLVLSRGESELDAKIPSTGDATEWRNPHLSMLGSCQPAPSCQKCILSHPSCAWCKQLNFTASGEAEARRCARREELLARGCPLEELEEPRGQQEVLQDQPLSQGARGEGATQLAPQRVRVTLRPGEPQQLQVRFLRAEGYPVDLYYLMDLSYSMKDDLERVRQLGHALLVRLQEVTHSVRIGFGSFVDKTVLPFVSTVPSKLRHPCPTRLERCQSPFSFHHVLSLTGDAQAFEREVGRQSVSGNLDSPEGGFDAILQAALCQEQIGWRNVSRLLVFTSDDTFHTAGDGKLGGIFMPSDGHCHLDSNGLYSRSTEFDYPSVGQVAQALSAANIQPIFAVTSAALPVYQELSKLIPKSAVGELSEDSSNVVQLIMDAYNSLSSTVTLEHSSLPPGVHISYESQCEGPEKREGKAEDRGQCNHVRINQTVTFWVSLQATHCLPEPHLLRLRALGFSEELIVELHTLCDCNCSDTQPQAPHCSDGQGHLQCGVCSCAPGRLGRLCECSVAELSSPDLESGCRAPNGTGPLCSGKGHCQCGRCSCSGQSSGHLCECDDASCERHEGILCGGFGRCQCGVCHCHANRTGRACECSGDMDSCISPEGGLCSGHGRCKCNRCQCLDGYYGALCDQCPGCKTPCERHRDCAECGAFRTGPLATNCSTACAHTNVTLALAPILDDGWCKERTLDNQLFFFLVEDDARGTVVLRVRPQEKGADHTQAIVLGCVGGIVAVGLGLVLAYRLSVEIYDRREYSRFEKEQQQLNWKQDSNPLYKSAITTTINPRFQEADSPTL
Description: Inhibition of alpha4-beta7 integrin mediated cell adhesion. It counts as protein-complex assay.

The next data set concerns the target Integrin alpha-M/beta-2 (Homo sapiens, UniProt P05107+P11215). Description: Inhibition of alphaM-beta2 mediated cell adhesion. It counts as protein-complex assay.
In data set [5] the target is T1, Integrin alpha-4/beta-1. Description: Affinity for alpha4-beta1 integrin from HL60 cell lysate. It counts as cell-based, HL-60.
The target of the next data set is Integrin alpha-V/beta-3 (Homo sapiens, UniProt P05106+P06756). Put plainly: Inhibition of alphaV-beta3 mediated cell adhesion. It counts as protein-complex assay.

As usually defined, the IC50 is the point on the concentration scale where inhibition reaches its midpoint. Low values mean greater potency, high ones weaker potency. By half-life is commonly meant how long it takes for the measured level to halve. Read a low half-life as rapid decline.

Square brackets hold non-standard residues; d marks the D form. Peptide text beside a SMILES is read from it. Thz = O=C(O)[C@@H]1CSCN1

T1 sequence (P05556 whole entry, one chain of several): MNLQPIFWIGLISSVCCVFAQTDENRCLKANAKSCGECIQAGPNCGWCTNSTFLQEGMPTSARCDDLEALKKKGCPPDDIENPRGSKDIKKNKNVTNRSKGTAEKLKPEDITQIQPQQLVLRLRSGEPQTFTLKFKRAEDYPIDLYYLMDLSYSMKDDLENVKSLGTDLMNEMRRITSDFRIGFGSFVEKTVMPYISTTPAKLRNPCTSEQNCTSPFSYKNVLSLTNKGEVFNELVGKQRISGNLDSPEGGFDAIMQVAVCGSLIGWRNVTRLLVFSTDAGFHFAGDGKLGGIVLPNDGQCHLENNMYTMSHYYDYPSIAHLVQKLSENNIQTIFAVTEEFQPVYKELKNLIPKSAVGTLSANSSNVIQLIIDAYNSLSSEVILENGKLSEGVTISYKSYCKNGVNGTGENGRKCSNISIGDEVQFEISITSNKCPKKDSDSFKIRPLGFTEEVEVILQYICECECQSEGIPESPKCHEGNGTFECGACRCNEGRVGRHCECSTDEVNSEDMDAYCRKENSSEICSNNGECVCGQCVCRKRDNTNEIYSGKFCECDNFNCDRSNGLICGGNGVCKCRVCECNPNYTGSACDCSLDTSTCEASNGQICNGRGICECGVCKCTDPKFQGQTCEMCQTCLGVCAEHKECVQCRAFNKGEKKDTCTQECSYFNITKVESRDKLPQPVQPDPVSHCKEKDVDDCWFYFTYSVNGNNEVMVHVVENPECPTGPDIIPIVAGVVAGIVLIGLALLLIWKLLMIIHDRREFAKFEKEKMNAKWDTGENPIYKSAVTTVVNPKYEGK
Sequence of Intercellular adhesion molecule (ICAM-1), Integrin alpha-L/beta-2 (P20701 whole entry): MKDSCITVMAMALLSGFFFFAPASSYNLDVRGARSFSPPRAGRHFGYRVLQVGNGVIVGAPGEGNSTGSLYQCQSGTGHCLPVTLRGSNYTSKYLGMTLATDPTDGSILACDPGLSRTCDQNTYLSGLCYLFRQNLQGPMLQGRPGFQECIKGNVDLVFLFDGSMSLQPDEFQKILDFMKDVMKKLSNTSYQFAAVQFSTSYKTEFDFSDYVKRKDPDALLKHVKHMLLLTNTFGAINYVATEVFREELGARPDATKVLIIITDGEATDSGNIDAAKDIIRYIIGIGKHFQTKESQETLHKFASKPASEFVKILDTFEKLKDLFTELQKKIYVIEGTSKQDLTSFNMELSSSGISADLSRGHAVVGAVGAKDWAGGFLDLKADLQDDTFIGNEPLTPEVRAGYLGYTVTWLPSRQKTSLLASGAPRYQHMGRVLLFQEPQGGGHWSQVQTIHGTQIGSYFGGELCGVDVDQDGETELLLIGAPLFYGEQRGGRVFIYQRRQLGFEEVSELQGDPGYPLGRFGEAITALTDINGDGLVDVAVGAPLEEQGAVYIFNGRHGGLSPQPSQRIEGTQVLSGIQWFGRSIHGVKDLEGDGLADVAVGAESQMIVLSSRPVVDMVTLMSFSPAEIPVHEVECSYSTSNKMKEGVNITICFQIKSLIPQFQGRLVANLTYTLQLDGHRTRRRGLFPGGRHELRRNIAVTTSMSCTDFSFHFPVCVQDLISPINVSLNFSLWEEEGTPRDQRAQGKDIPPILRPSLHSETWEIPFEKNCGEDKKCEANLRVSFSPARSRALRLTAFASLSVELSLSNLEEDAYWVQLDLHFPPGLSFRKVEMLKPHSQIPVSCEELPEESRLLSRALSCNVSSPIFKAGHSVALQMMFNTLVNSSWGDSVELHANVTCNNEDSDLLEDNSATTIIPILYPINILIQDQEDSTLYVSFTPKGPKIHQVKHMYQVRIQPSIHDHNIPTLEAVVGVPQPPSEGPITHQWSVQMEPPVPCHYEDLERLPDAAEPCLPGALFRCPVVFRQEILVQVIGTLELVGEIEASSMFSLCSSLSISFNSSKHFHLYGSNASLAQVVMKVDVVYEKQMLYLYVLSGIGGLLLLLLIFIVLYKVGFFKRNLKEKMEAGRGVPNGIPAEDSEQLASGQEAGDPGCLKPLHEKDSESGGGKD
Sequence of Intercellular adhesion molecule (ICAM-1), Integrin alpha-L/beta-2 (P05362 whole entry): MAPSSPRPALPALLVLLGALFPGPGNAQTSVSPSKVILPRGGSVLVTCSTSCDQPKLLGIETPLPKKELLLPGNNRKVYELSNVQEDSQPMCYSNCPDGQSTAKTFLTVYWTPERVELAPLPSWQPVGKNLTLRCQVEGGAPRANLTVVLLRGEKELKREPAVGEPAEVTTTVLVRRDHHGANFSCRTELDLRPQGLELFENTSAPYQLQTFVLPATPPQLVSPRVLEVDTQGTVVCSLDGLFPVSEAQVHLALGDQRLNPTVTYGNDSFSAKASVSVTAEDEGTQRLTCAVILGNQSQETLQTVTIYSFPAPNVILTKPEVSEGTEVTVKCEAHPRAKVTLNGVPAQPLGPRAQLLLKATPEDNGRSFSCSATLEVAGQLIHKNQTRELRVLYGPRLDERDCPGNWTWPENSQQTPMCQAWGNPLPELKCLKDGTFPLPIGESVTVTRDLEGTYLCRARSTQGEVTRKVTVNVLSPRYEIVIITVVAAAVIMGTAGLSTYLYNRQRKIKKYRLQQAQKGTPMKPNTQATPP
Sequence of Intercellular adhesion molecule (ICAM-1), Integrin alpha-L/beta-2 (P05107 whole entry): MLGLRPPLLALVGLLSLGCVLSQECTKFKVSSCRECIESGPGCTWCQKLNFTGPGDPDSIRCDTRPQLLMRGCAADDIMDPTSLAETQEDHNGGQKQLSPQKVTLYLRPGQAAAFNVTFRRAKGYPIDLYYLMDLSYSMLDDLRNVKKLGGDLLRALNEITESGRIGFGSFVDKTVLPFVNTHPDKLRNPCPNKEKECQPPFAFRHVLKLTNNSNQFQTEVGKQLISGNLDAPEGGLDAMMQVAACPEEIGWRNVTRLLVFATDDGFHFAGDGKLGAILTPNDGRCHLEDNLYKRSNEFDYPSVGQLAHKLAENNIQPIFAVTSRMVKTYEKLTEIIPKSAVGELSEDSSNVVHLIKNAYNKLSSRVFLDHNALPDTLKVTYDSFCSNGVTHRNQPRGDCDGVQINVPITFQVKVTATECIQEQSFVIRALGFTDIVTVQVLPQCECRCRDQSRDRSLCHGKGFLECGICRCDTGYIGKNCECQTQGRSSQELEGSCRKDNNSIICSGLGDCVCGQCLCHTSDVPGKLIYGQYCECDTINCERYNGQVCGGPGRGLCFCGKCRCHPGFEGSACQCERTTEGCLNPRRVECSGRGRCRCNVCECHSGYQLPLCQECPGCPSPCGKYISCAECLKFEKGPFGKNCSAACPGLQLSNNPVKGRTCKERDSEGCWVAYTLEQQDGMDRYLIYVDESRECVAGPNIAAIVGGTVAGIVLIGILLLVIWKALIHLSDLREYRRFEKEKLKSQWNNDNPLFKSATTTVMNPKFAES
Sequence of Integrin alpha-IIb/beta-3 (P05106 27-788 limits assumed): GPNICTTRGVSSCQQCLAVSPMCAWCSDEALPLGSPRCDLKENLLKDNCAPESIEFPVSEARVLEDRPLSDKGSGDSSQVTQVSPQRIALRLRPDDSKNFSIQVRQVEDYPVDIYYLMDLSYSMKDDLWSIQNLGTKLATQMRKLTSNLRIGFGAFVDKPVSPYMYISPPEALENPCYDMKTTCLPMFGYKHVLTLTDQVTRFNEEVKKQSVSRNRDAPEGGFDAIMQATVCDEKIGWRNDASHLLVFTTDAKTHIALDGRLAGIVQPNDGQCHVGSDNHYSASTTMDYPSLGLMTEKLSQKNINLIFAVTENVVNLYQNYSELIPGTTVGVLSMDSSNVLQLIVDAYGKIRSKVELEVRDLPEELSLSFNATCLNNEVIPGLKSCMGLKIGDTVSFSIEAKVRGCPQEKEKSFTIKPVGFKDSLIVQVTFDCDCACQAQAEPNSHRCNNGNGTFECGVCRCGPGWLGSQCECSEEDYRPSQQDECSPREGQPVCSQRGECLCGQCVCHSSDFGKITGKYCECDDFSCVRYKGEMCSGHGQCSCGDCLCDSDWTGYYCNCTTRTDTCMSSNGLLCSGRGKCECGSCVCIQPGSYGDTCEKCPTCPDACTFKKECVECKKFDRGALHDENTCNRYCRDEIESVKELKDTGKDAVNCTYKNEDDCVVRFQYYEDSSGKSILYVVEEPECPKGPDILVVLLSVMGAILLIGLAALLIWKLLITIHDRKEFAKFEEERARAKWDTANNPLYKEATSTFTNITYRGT
Sequence of Integrin alpha-IIb/beta-3 (P08514 32-887 limits assumed): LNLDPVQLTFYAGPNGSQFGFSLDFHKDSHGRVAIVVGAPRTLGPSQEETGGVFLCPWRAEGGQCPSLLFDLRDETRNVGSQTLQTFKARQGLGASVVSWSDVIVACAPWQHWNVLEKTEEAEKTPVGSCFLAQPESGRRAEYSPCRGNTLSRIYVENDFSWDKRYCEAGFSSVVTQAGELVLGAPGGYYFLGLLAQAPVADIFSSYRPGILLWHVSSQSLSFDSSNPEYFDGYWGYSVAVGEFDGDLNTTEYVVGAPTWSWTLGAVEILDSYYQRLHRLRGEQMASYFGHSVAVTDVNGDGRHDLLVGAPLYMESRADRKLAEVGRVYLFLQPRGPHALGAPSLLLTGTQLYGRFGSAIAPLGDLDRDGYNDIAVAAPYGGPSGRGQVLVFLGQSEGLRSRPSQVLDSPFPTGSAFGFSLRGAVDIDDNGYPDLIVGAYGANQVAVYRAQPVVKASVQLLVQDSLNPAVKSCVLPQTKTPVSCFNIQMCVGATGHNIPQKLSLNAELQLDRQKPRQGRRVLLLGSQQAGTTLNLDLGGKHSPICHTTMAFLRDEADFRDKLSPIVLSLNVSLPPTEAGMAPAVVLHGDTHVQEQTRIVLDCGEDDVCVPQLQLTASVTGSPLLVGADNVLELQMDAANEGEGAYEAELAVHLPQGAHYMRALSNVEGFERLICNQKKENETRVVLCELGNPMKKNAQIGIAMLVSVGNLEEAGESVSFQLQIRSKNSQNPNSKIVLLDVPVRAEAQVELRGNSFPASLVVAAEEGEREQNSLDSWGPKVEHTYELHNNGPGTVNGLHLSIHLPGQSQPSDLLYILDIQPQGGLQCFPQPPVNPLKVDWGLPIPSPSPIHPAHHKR
Sequence of Integrin alpha-IIb/beta-3 (P08514 891-1039 limits assumed): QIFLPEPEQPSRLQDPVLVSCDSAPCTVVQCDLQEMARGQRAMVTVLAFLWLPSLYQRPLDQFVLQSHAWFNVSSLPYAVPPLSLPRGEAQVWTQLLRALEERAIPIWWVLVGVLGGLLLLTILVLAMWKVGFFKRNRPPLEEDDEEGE

As to `CC(=O)N1CSC[C@@H]1C(=O)N[C@@H](Cc1ccc(OCc2c(Cl)cccc2Cl)cc1)C(=O)O`, the IC50 in [1] was above 400 µM; in data set [2], above 200 µM; at Integrin alpha-4/beta-1 [4], 0.034 µM; on Integrin alpha-5/beta-1, above 800 µM; against Integrin alpha-4/beta-7, 0.19 µM; against Integrin alpha-M/beta-2 it was above 400 µM. Moreover, the IC50 is 0.005 µM at Integrin alpha-4/beta-1 [5] and above 800 µM at Integrin alpha-V/beta-3. In addition, in [3], the half-life was above 12 h.
Take `CC(=O)N1CSC[C@@H]1C(=O)N[C@@H](Cc1ccc(OC(=O)c2ccccc2)cc1)C(=O)O`: the half-life in data set [3] is 1.6 h. Moreover, the figures for the IC50 on Integrin alpha-4/beta-1 [4] and at Integrin alpha-4/beta-1 [5] were 0.17 µM and 0.004 µM, respectively.
As for `CC(=O)N1CSC[C@@H]1C(=O)N[C@@H](Cc1ccc(OCc2ccccc2)cc1)C(=O)O`, the half-life in data set [3] is above 12 h. Also, the IC50 turned out to be 1.48 µM on Integrin alpha-4/beta-1 [4] and 0.025 µM against Integrin alpha-4/beta-1 [5].
The like results for `CC(=O)N1CSC[C@@H]1C(=O)N[C@@H](Cc1ccc(OC(=O)C23CC4CC(CC(C4)C2)C3)cc1)C(=O)O` were, in that order, 2.3 h, 0.14 µM and 0.012 µM.
As for `CC(=O)N1CSC[C@H]1C(=O)N[C@@H](Cc1ccc(OCc2ccccc2)cc1)C(=O)O`, the values for the IC50 at Integrin alpha-4/beta-1 [4] and on Integrin alpha-4/beta-1 [5] were 19.5 µM and 0.22 µM, respectively.
Turning to `CC(=O)N1CSC[C@@H]1C(=O)N[C@@H](Cc1ccc(OCc2ccccc2C(F)(F)F)cc1)C(=O)O`, the IC50 at Integrin alpha-4/beta-1 [4] worked out at 0.17 µM; at Integrin alpha-4/beta-1 [5], 0.015 µM.
Turning to `COc1cccc(OC)c1COc1ccc(C[C@H](NC(=O)[C@H]2CSCN2C(C)=O)C(=O)O)cc1`, the IC50 on Integrin alpha-4/beta-1 [4] came out at 0.04 µM; on Integrin alpha-4/beta-1 [5] it was 0.002 µM.
In the case of `CC(=O)N1CSC[C@H]1C(=O)N[C@@H](Cc1ccc(O)cc1)C(=O)O` (Ac-[Thz]-Tyr-OH), the results for the IC50 at Integrin alpha-4/beta-1 [4] and against Integrin alpha-4/beta-1 [5] were 263 µM and 2.74 µM, respectively.
The like results for `CC(=O)N1CSC[C@H]1C(=O)N[C@@H](Cc1ccccc1)C(=O)O` (Ac-[Thz]-Phe-OH) were, in that order, 35.2 µM and 0.36 µM.
In the same order, the values of `CC(=O)N1CSC[C@@H]1C(=O)N[C@@H](Cc1ccc(OCc2c(F)cccc2F)cc1)C(=O)O` are 0.06 µM and 0.003 µM.
As for `COc1ccc(C[C@H](NC(=O)[C@@H]2CSCN2C(C)=O)C(=O)O)cc1` (Ac-[Thz]-Tyr(Me)-OH), the values for the IC50 at Integrin alpha-4/beta-1 [4] and at Integrin alpha-4/beta-1 [5] were 76.6 µM and 0.31 µM, respectively.
Regarding `CC(=O)N1CSC[C@@H]1C(=O)N[C@@H](Cc1ccc(OC(=O)c2c(Cl)cccc2Cl)cc1)C(=O)O`, in [3], the half-life was above 12 h. Further, the IC50 on Integrin alpha-4/beta-1 [4] amounted to 0.024 µM; at Integrin alpha-4/beta-1 [5] it was 0.006 µM.
Take `CC(=O)N1CSC[C@@H]1C(=O)N[C@@H](Cc1ccc(OCc2cc(Cl)cc(Cl)c2)cc1)C(=O)O`: the 50% inhibitory concentration (IC50) is 0.15 µM at Integrin alpha-4/beta-1 [4] and 0.017 µM against Integrin alpha-4/beta-1 [5].
Consider `CC(=O)N1CSC[C@H]1C(=O)N[C@@H](CSCCCNC(=O)C12CC3CC(CC(C3)C1)C2)C(=O)O`, for which the IC50 on Integrin alpha-4/beta-1 [4] was 8.04 µM; against Integrin alpha-4/beta-1 [5] it was 0.09 µM.
Consider `CC(=O)N1CSC[C@@H]1C(=O)N[C@@H](Cc1ccc(OCc2c(Cl)cc(Cl)cc2Cl)cc1)C(=O)O`, for which the results for the IC50 on Integrin alpha-4/beta-1 [4] and on Integrin alpha-4/beta-1 [5] were 0.035 µM and 0.009 µM, respectively.
